Assays:
Format in all cases: cell-based
MCF7 cells [1] = test: Caspase and autophagy inhibitors assay (Z-VAD-FMK, wortmannin; TUNEL); conditions: MCF7, 50 μM Z-VAD-FMK 1 h pre-incubation, compound 5 25 μM or compound 15 30 μM, 48 h
Experimental: Se compounds induce different types of cell death, among which apoptosis and autophagy are the most common. To further elucidate the pathway through which compounds 5 and 15 trigger cell death, we used Z-VAD-FMK, a pan-caspase inhibitor and wortmannin, a PI3K inhibitor which blocks autophagy. MCF7 cells were pre-incubated for 1 h with 50 μM of Z-VAD-FMK or 100 nM wortmannin and co-incubated with compound 5 (25 μM), compound 15 (30 μM) or vehicle (control) for 48 h. Treated cells without inhibitors were also included.
2 × 10^6 MCF7 cells were seeded in 25 cm^2 flasks. After 24 h, cells were pre-treated with 50 μM of the pan-caspase inhibitor Z-VAD-FMK (BD Pharmingen) or 100 nM wortmannin (Santa Cruz Biotechnology, Heidelberg, Germany) for 1 h before co-incubating them with 25 μM of compound 5, 30 μM of compound 15 or vehicle (maximum amount of DMSO used in the treatments) for 48 h. Cells were collected and processed with the Apo-Direct kit as described previously.
Figure 6 Cell death induced by compounds 5 and 15 involves the caspases pathway. MCF7 cells were pre-incubated with 50 μM of Z-VAD-FMK or 100 nM wortmannin for 1 h before treating cells with compound 5 (25 μM), compound 15 (30 μM) or vehicle (control) for 48 h. Cells were stained with the Apo-Direct kit (TUNEL assay) and analyzed by flow cytometry. […]

[2] = system: 184B5 (non-malignant mammary epithelium); test: MTT viability assay, 184B5; conditions: 184B5 non-malignant, 72 h, MTT; for CC50: read-out: LC50 (the source's name)
Experimental: (§1) The novel compounds were tested against a panel of different cancer lines: PC-3 (prostate adenocarcinoma), MCF7 (mammary adenocarcinoma), HTB-54 (lung carcinoma), K-562 (chronic myelogenous leukemia) and HT-29 (colorectal adenocarcinoma). Two non-malignant cell lines, BEAS-2B (bronchial epithelial) and 184B5 (mammary epithelial) were also included to evaluate the toxicity of the novel synthesized compounds. The antiproliferative activity was measured with the [3-(4,5-dimethylthiazol-2-yl)-2,5-diphenyltetrazolium bromide] (MTT) assay after 72 h treatment. Six concentrations ranging from 0.1 to 100 μM were tested. MSA is largely known as the main CH3SeH putative precursor and was therefore included as positive control. The following parameters were calculated: GI50 (concentration which reduces the growth by 50%), TGI (concentration completely inhibiting growth) and LC50 (concentration that kills 50% of the cells).
(§2) All cells were purchased from the American Type Culture Collection (ATCC, Barcelona, Spain). HT-29 (colorectal adenocarcinoma), HTB-54 (grade III lung carcinoma), MCF7 (mammary adenocarcinoma), PC-3 (grade IV prostate adenocarcinoma) and K-562 (chronic myelogenous leukemia) were cultured in RPMI (Gibco, Madrid, Spain), 10% FBS (Gibco), 100 units/mL penicillin and 100 μg/mL streptomycin (Gibco). BEAS-2B cell line (normal epithelial lung) was cultured in DMEM (Gibco), 10% FBS, 100 units/mL penicillin and 100 μg/mL streptomycin. 184B5 (normal mammary gland) cell line was cultured in DMEM:F12 supplemented with 5% FBS, 1 × ITS (Lonza, Barcelona, Spain), 100 nM hydrocortisone (Sigma-Aldrich), 2 mM sodium pyruvate (Lonza), 20 ng/mL EGF (Sigma-Aldrich), 0.3 nM trans-retinoic acid (Sigma-Aldrich), 100 units/mL penicillin and 100 µg/mL streptomycin. Cells were cultured at 37 °C under 5% CO2.
(§3) Cell viability after treatment was assessed by the well-known 3-(4,5-dimethyl-thiazol-2-yl)-2,5-diphenyltetrazolium bromide (MTT, Sigma-Aldrich) assay. Briefly, 10,000 cells were seeded in 96-well plates, treated and incubated for 72 h. Dilutions of the compounds in cell medium were freshly prepared from a 0.01 M stock in DMSO. After treatment, 50 μL of MTT solution in PBS (2 mg/mL) were added and cells were incubated for 4 h. Medium was removed and 150 μL of DMSO was added to dissolve the formed formazan crystals. Absorbance was read at 550 nm in a microplate absorbance reader (Sunrise, Tecan, Männedorf, Switzerland).

MCF7 cells [3] = test: Cell cycle analysis (propidium iodide, Apo-Direct kit, flow cytometry); conditions: for concentration from which the increase of cells in G2/M phase was evident: MCF7, 24 h; for effect on cell cycle distribution: MCF7, increasing concentrations 24 h or time-course; for time of significant decrease in the G0/G1 phase / treatment time after which an increase in G2/M phase was found: MCF7, time-course, 15 μM compound 5 or 30 μM compound 15
Experimental: Cell cycle arrest is the target of many anticancer drugs, as it is the first step to decrease cell proliferation. To gain a better understanding of the mechanism of these compounds, the effect of compounds 5 and 15 on cell cycle distribution was analyzed. MCF7 cells were treated with increasing concentrations of both compounds for 24 h or with 15 μM 5 or 30 μM 15 for different times. The negative control was treated with vehicle, and camptothecin (6 μM) was used as a positive control. Samples were stained with propidium iodide using the Apo-Direct kit (BD Pharmingen, Madrid, Spain) and processed by flow cytometry.
3 × 10^6 or 2 × 10^6 MCF7 cells were seeded in 25 cm^2 flasks for treatments up to 24 h or 48 h, respectively. DMSO (vehicle) or the dissolved compounds were added 24 h after seeding and cells were incubated for different times at 37 °C under 5% CO2. Cell cycle and cell death were analyzed simultaneously with the Apo-Direct kit (BD Pharmingen, Madrid, Spain), following the manufacturer’s protocol. Briefly, cells were fixed in 1% paraformaldehyde for 45 min at 0 °C, washed with PBS and incubated for at least 30 min in 70% ethanol on ice. Cells were then stained both with FITC-dUTP (1 h, 37 °C) and propidium iodide (30 min, room temperature) and analyzed by flow cytometry using a Coulter Epics XL cytometer (Beckman Coulter, Brea, CA, USA).
Figure 4 Compounds 5 and 15 induce cell cycle arrest in G2/M phase in MCF7. MCF7 cells were treated with different concentrations of compound 5, 15 or vehicle (control) for 24 h or for different time periods. Cells were stained with propidium iodide with the Apo-Direct kit and analyzed by flow cytometry. (A) Quantification of cell cycle distribution after 24 h treatment with increasing concentrations of compound 5; (B) Representative experiment of A; (C) Quantification of cell cycle distribution after 24 h treatment with increasing concentrations of compound 15; (D) Representative experiment of C; (E) Cell cycle distribution after treatment with vehicle, 15 μM of compound 5 or 30 μM of compound 15 for different times. Results represent the mean ± SEM of at least three independent experiments performed in duplicate. * p < 0.05, ** p < 0.01.

[4] = system: HT-29 (colorectal adenocarcinoma); test: MTT viability assay, HT-29; conditions: HT-29, 72 h, MTT; for CC50: read-out: LC50 (the source's name)
Experimental: as §1, §2, §3

[5] = system: K-562 (chronic myelogenous leukemia); test: MTT viability assay, K-562; conditions: K-562, 72 h, MTT; for CC50: read-out: LC50 (the source's name)
Experimental: as §1, §2, §3

In the case of “Methyl 3-chlorothiophen-2-carboselenoate [Compound 5]”, the “decrease of cell death in the presence of the pan-caspase inhibitor Z-VAD-FMK” value (MCF7 cells [1]) is reported as 36%, the GI50 [2] is reported as 3.5 ± 0.4 µM and the TGI [2] is reported as 5.9 ± 0.3 µM. The CC50 [2] was 8.3 ± 0.2 µM, the “concentration from which the increase of cells in G2/M phase was evident” value (MCF7 cells [3]) was no less than 15 µM and the “effect on cell cycle distribution” value (MCF7 cells [3]) was “increased the percentage of cells in G2/M phase”. The “time of significant decrease in the G0/G1 phase” value (MCF7 cells [3]) was 8 h, the “treatment time after which an increase in G2/M phase was found” value (MCF7 cells [3]) was 8 h and the GI50 [4] was 3.6 ± 0.3 µM. It also gave a TGI [4] of 6.3 ± 0.2 µM, a CC50 [4] of 8.9 ± 0.2 µM and a GI50 [5] of 38.7 ± 2.1 µM. For the same substance, the TGI [5] was 67.0 ± 1.9 µM and the CC50 [5] was 95.2 ± 2.2 µM.
“Dimethyl 2,5-furandicarboselenoate [Compound 15]” was tested, and the “decrease of cell death in the presence of the pan-caspase inhibitor Z-VAD-FMK” value (MCF7 cells [1]) was 14%, the GI50 [2] was 3.5 ± 1.1 µM and the TGI [2] was 6.4 ± 0.5 µM. For the same substance, the CC50 [2] was 9.2 ± 0.9 µM, the “concentration from which the increase of cells in G2/M phase was evident” value (MCF7 cells [3]) was no less than 7 µM and the “effect on cell cycle distribution” value (MCF7 cells [3]) was “increased the percentage of cells in G2/M phase”. The “time of significant decrease in the G0/G1 phase” value (MCF7 cells [3]) was 16 h, the “treatment time after which an increase in G2/M phase was found” value (MCF7 cells [3]) was 8 h and the GI50 [4] was 3 ± 0.5 µM. It also gave a TGI [4] of 6.6 ± 0.4 µM, a CC50 [4] of 35.8 ± 5 µM and a GI50 [5] of 42 ± 3.8 µM. It also gave a TGI [5] of 70.6 ± 3.4 µM and a CC50 [5] of 99.2 ± 5.3 µM.

Reference: paper PMC6152192, “Novel Methylselenoesters as Antiproliferative Agents” (Molecules : A Journal of Synthetic Chemistry and Natural …, 2017)
